# In US12037361B2, “Methods for treating multidrug resistant breast cancer” (THE HONG KONG POLYTECHNIC UNIVERSITY, priority 2021, dated 2024):
# Residues, ends and D or L forms follow the SMILES beside them.
# Legend:
# [1] = test system: MCF7 human breast cancer xenograft; test: In vivo efficacy study in MCF7 breast cancer xenograft model; conditions: for No. of toxicity death: MCF7 xenograft nude mice, deaths/animals; for tumor volume at end of study: 20 days; for Tumor inhibition (%): 10 injections in 20 days
# Method: Data obtained are analyzed to evaluate treatment outcomes. Tumor doubling time is calculated using tumor volumes obtained from the end of experiment versus the tumor volumes on the first day of treatment. Tumor inhibition (%) is calculated using the tumor volumes obtained from the end of experiment. Corresponding equations of determining tumor inhibition (T/C) and tumor doubling time (Td) are provided as follows:
# (Q) In Vivo Efficacy Study of DRI-TAT-SP Combined with DOX in Treating MCF7 Breast Cancer Xenograft Model:
# Six- to eight-week-old female Balb/c nude mice were maintained under specific pathogen-free conditions prior to in vivo efficacy study. Each animal was implanted with a piece of […] pellet 0.72 mg, 60-day release. (Cat No. SE-121, Innovative Research of America, Sarasota, FL). Four days later, the nude mice were inserted at the both flanks with a sesame sized (around 10 mm^3) MCF-7 tumor piece originated from a tumor bulk. When the tumor reached approximately 100 mm^3 (21-28 days), the mice were randomized and administered intravenously with (1) 1×PBS, (2) DOX 1.2 mg/kg, (3) DRI-TAT-SP 25 mg/kg or (4) DOX 1.2 mg/kg+DRI-TAT-SP 25 mg/kg once every 2 days for a total of 10 injections. Tumor volume was measured using digital caliper once every 4 days. Estimated tumor volume (mm^3) was calculated as ½×length (mm)×width (mm)^2. The mouse body weights were recorded once every two days. The tumor doubling time (Td) was calculated as t×log 2/log(Vf/V0), where t, Vf and V0 stand for interval time, percentage change of tumor volume on final day and percentage change of tumor volume on initial day.
# [2] = in vivo; design: species or system Balb/c mice; conditions: mouse, iv, 25 mg/kg
# Method: (M) Pharmacokinetic Study of SHARPIN-Derived Peptides:
# SHARPIN-derived peptides powder was dissolved in 1×PBS and administered intravenously at 25 mg/kg to overnight-starved Balb/c mice (n=3). At different time points (5, 15, 30, 60, 120, 240, 420 min), blood was collected via cardiac puncture and placed in a heparinized Eppendorf tube followed by centrifuged at 14,000 rpm for 5 min to obtain blood plasma. Plasma was stored at −80° C. until analysis. Plasma concentration data were analyzed by non-compartmental model. Area under plasma concentration-time curve (AUC), distribution half-life (t1/2α) and elimination half-life (t1/2β) were calculated by PK solution2.0 (Summit Research Service, Ashland, USA).
# (O) UPLC/QQQ-MS Analysis Protocol:
# Agilent 6460 Ultra Performance Liquid Chromatography-Electrospray Ionization Triple Quadrupole mass spectrometer (UPLC-QQQ-MS) was used in sample separation, peptide detection and quantification. Waters Acquity UPLC BEH Protein C4 column (1.7 μm, 2.1×100 mm) was used for separation. SHARPIN-derived peptides were separated and eluted by a gradient of water (0.1% FA, v/v) and acetonitrile (ACN) (0.1% FA, v/v) at a constant flow rate of 0.3 mL/min. During separation, an elution protocol was used as follows. Equilibration: 0 to 1 min, 5% ACN. Elution gradient: 1 to 10 min, ACN from 5 to 99%. Regeneration: 10 to 11 min, 99% ACN, then 11 to 11.5 min, ACN from 99% to 5%. Re-equilibration: 11.5 to 13 min: 5% acetonitrile. A hundred microlitres of plasma/tumor samples were added with 300 μL acetonitrile (1% formic acid (FA)) for protein and peptide precipitation. […] after centrifugation at 14,000 rpm for 10 minutes. Then the samples were reconstituted in 50% methanol (0.1% FA, v/v), filtered through a 0.22 μm nylon filter, and kept in the autosampler at 4° C. for analysis. Twenty microliters were injected into the MS. The MS was operated in positive electrospray ionization (ESI+) mode with supply of 300° C. gas temperature and sheath gas temperature, 8 L/min drying gas, and 11 L/min sheath gas flow and 3.5 kV capillary voltage. The signals of TAT-SP and DRI-TAT-SP were recorded at m/z 563 to 661 at collision energy (CE) of 15 eV and m/z 569 to 637 at CE of 20 eV, respectively. TAT-SP and DRI-TAT-SP were eluted at 4.05 and 3.86 minutes, respectively.
# [3] = test system: MCF-7 CSC; test: Reversal of chemoresistance in MCF-7 CSC (MTS cell viability assay); type: cell-based, human
# Method: (L) Determination of 50% Inhibitory Concentration (IC50) by MTS Assay:
# MCF-7 AC and derived cells were seeded onto 96-well plates at a density of 1×10^4 cells per well and treatments of anticancer drugs or peptides were administered accordingly. Following 72-hour incubation at 37° C. with 5% CO2, cell viability was assessed using CellTiter 96 AQueous Non-Radioactive Cell Proliferation Assay (Promega). The IC50 value was estimated from the optical density at 492 nm using GraphPad.
# [4] = FIG. 7B
# Text: Table printed on a drawing sheet, FIG. 7B
# First reader's note: The table is printed as an inset in the plasma level versus time plot of DRI-TAT-SP, and the substance name is taken from the plot axis.
# [5] = In vivo toxicity test in Balb/c mice; conditions: healthy Balb/c mice, DOX 1.2 mg/kg i.v. once every two days, 10 injections
# Method: (P) In Vivo Toxicity Test in Balb/c Mice:
# Healthy female Balb/c mice (6-8 weeks old) were randomized into 3 groups and were administered with (1) DOX 1.2 mg/kg i.v., (2) DRI-TAT-SP 25 mg/kg i.v, and (3) DOX 1.2 mg/kg+DRI-TAT-SP 25 mg/kg i.v. once every two days (q2d) for 10 injections via tail vein injection. The body weight of the mice was measured once every 2 days. Any toxicity symptoms including body weight change and behavioral changes will be monitored.
# [6] = test system: Akt pathway; test: Western blotting of p-Akt (T308) in CSCs; type: cell-based, human; conditions: 1 μM peptide for 24 hours
# Method: (K) Protein Preparation and Western Blotting:
# Total protein was extracted with RIPA buffer supplied with protease inhibitor (Roche), resolved in 10% SDS-PAGE and transferred onto Immobilon-P PVDF membrane (Millipore). Membranes were blocked with 5% non-fat dry milk in Tris-buffered saline with 0.1% Tween (TBST) for 2 hours, then were incubated overnight with corresponding antibodies at 4° C., followed by incubation with horseradish peroxidase-conjugated goat anti-mouse IgG (Santa Cruz Biotechnology) or goat anti-rabbit IgG (Santa Cruz Biotechnology) as appropriate, for 2 hours at room temperature in TBST. Antibody binding was detected with Pierce ECL Western Blotting Substrate (Thermo Scientific) and images were visualized with Azure C600 imaging system (Azure Biosystems). The antibodies used were anti-ITGA2 (Abcam), anti-CRT (CST), anti-ILR2 (CST), anti-MRP1/ABCC1 (CST), anti-Mdr-1 (Santa Cruz Biotechnology), anti-Akt (pan) (CST), anti-pAkt (S473) (CST), anti-pAkt (T308) (CST), p53 (Santa Cruz Biotechnology) and anti-β-actin (Santa Cruz Biotechnology).
# [7] = test system: CSCs; test: Annexin V apoptosis assay by flow cytometry in CSCs; type: cell-based, human; conditions: 1 μM DOX for 24 hours, 1 μM peptide
# Method: (F) Flow Cytometry Analysis:
# Cells were detached by Phosphate buffered saline (PBS) with 2.5 mM EDTA and washed with PBS. For determining CSC population, a total of 1×10^6 cells were incubated with APC-CD44 (BD Biosciences) and PE-CD24 (BD Biosciences) in FACS solution (PBS with 1% BSA and 1 mM EDTA) for 30 minutes on ice. APC-IgG2 (BD Biosciences) and PE-IgG2 (BD Biosciences) were used as isotype controls. For determining apoptotic population, a total of 1×10^6 cells were first treated with or without 1 μM DOX for 24 hours, in the absence or presence of 1 μM TAT-SP or TAT-SPScr, followed by incubation with FITC-Annexin V (BD Biosciences) and propidium iodide (PI) in binding buffer (10 mM Hepes, pH 7.4, 140 mM NaCl and 2.5 mM CaCl2) for 30 minutes on ice as per the manufacturer's instructions. For determining CRT surface localization, a total of 1×10^6 cells, treated with or without 1 μM DOX for 24 hours, were incubated with anti-CRT antibody (1:800, CST) in PBS with 3% BSA for 1 hour on ice. After washing with PBS, cells were further incubated with 2 μg/mL goat anti-rabbit Alexa Fluor 488 (Invitrogen) for 45 minutes on ice. Fluorescence signals were analyzed by BD Accuri C6 flow cytometer (BD Biosciences).
# [8] = target: T1, ITGA2/CRT interaction (Homo sapiens, UniProt P17301); test: Co-immunoprecipitation with anti-CRT antibody: competition with CRT for KXGFFKR motif of ITGA2; type: binding; conditions: CSC lysate immunoprecipitated with anti-CRT antibody; TAT peptides at 1 μM for 24 hours
# T1 construct: endogenous in cells; host or cells: MCF-7-derived cells (lysate)
# Method: Calreticulin (CRT) from MCF-7-derived cells was immunoprecipitated by anti-CRT (CST) antibody. In brief, MCF-7-derived cells, with or without 24-hour incubation of 1 μM TAT-SP or TAT-SPScr, were collected and subsequently lysed with RIPA buffer on ice for 30 minutes. The lysate was diluted 5-fold with PBS and incubated with anti-CRT antibody overnight at 4° C. with simultaneous mixing on a rotating platform, followed by further incubation of Protein-G PLUS agarose (Santa Cruz Biotechnology) at 4° C. for at least 2 hours.
# After incubation, agarose beads were centrifuged and washed by PBS. Immunoprecipitated proteins were collected by treating the beads with 0.2 M glycine and subjected to Western Blotting (WB) analysis.
# [9] = test system: MRP1; test: DOX accumulation assay in CSCs; type: cell-based, human; conditions: 5 μM DOX, 1 μM peptide for 24 hours
# Method: (I) DOX Accumulation Assay:
# To assess MRP1 activity, 2×10^5 MCF-7 AC and derived cells, with or without 24-hour incubation of 1 μM TAT-SP or TAT-SPScr, were treated with 5 μM DOX at 37° C. for 2 hours. After removal of extracellular drugs, cells were divided into two equal halves. One half was lysed with lysis buffer (isopropanol with 0.75 M HCl and 0.2% Triton X-100) at room temperature for 30 minutes; the other half was incubated with 5 μM CMFDA (Invitrogen) in darkness at room temperature for 30 minutes. The fluorescent intensities of drugs and dyes were detected with CLARIOstar (BMG LABTECH) and relative drug concentrations were normalized to CMFDA level.
# [10] = MCF7 xenograft, DOX 1.2 mg/kg, DRI-TAT-SP 25 mg/kg
# [11] = MCF7 xenograft, i.v. once every 2 days, DOX 1.2 mg/kg, DRI-TAT-SP 25 mg/kg
# T1 sequence (P17301 30-1181): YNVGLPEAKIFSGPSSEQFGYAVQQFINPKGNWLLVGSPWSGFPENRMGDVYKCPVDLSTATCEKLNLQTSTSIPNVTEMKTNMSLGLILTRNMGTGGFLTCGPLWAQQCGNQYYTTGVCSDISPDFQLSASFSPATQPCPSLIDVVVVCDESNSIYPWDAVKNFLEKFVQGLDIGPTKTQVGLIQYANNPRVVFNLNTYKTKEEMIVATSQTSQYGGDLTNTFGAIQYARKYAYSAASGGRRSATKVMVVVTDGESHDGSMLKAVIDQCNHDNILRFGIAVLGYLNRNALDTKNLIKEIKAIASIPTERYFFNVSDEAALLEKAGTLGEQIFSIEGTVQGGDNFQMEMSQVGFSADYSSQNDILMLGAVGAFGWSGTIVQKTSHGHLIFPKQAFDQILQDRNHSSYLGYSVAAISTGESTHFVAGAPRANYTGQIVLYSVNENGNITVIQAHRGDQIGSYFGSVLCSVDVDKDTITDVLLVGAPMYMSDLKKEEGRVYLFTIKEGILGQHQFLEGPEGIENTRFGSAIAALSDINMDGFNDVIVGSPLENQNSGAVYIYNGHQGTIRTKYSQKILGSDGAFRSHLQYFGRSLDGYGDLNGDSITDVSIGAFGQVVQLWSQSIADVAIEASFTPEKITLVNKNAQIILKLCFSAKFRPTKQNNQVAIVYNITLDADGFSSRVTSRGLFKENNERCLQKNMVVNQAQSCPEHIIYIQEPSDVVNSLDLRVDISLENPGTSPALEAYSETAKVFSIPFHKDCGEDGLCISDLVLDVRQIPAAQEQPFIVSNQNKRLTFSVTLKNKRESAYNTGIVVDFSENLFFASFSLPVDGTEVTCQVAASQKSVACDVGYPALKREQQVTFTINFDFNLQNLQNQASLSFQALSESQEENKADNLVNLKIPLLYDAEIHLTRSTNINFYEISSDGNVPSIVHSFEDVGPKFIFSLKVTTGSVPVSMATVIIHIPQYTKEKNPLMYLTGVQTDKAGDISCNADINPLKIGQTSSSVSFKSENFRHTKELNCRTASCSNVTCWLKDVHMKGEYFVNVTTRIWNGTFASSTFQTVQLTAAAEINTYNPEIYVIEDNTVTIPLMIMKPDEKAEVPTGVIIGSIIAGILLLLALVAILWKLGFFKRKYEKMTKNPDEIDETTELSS
# T1 sequence (P05556 21-798 partner): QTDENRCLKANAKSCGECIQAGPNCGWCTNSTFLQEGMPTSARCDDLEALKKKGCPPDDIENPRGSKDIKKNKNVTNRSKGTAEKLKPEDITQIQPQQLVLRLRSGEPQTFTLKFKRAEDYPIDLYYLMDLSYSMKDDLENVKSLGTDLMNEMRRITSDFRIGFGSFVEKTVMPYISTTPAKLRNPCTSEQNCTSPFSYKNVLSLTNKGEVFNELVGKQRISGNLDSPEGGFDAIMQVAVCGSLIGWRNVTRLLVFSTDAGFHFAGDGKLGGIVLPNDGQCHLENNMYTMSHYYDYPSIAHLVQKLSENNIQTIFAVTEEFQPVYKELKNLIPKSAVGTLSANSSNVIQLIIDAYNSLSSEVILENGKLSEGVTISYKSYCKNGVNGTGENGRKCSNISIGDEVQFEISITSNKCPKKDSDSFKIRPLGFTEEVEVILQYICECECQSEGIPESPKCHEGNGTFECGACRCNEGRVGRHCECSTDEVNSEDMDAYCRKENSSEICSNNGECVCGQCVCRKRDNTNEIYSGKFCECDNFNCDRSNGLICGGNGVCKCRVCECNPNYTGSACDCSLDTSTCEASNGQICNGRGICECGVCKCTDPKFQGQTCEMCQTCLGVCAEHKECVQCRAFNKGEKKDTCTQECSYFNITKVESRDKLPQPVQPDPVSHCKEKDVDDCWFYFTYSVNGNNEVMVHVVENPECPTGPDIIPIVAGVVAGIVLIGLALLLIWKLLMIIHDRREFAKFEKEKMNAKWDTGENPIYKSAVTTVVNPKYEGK
molecule,measurement,setting,value
"CC[C@@H](C)[C@@H](NC(=O)CNC(=O)[C@@H](CCCNC(=N)N)NC(=O)[C@@H](CS)NC(=O)[C@@H](CC(C)C)NC(=O)[C@@H](CS)NC(=O)[C@H](NC(=O)[C@H]1CCCN1C(=O)[C@@H](CCC(=O)O)NC(=O)[C@@H](CCCNC(=N)N)NC(C)=O)C(C)C)C(=O)N[C@@H](C(=O)N[C@H](Cc1c[nH]c2ccccc12)C(=O)N[C@H](CCCNC(=N)N)C(=O)N[C@H](CCC(N)=O)C(=O)N[C@@H](C(=O)N[C@H](C)C(=O)N1CCC[C@@H]1C(=O)N1CCC[C@@H]1C(=O)N[C@H](Cc1ccccc1)C(=O)NCC(=O)N[C@H](CC(C)C)C(=O)N[C@H](CCC(=O)O)C(=O)N[C@H](CO)C(=O)N[C@H](CCCNC(=N)N)C(=O)N[C@H](CCCNC(=N)N)C(=O)N[C@H](CCCNC(=N)N)C(=O)N[C@H](CCC(N)=O)C(=O)N[C@H](CCCNC(=N)N)C(=O)N[C@H](CCCNC(=N)N)C(=O)N[C@H](CCCCN)C(=O)N[C@H](CCCCN)C(=O)N[C@H](CCCNC(=N)N)C(N)=O)C(C)C)C(C)C [DRI-TAT-SP, Ac-repvclcrgivwrqvappfglesrrrqrrkkr-NH2] (HELM PEPTIDE1{[ac].[dR].[dE].[dP].[dV].[dC].[dL].[dC].[dR].G.[dI].[dV].[dW].[dR].[dQ].[dV].[dA].[dP].[dP].[dF].G.[dL].[dE].[dS].[dR].[dR].[dR].[dQ].[dR].[dR].[dK].[dK].[dR].[am]}$$$$V2.0)",No. of toxicity death,[1],0/6
same,tumor volume at end of study,[1]; [10],325±135 mm^3
same,Tumor inhibition (%),[1]; [11],10.1%
same,Tumor doubling time,"[1]; MCF7 xenograft, i.v. once every 2 days, 10 injections, DOX 1.2 mg/kg, DRI-TAT-SP 25 mg/kg",12.9 days
same,Cmax,[2]; Balb/c,870 ng/mL
same,half-life,"[2]; Balb/c, distribution half-life t1/2α",15.9 min
same,half-life,"[2]; Balb/c, elimination half-life t1/2β",442 min
same,time of Cmax post administration,[2],5 min
same,EC50,"[3]; MCF-7 breast CSCs, in the presence of DOX, 72-hour incubation, read-out: EC50 of reversing chemoresistance in the presence of DOX (DOX-EC50)",2300 ± 400 nM
same,AUC(0-obs) | ng-min/mL,[4],"118,010 ng-min/mL"
"COc1cccc2c1C(=O)c1c(O)c3c(c(O)c1C2=O)C[C@@](O)(C(=O)CO)C[C@@H]3O[C@H]1C[C@H](N)[C@H](O)[C@H](C)O1 [Doxorubicin, reference compound]",No. of toxicity death,[1],0/8
same,tumor volume at end of study,[1]; [10],270±73 mm^3
same,Tumor inhibition (%),[1]; [11],21.5%
same,body weight change,[5],+0.6±2.4%
RKKRRQRRRSELGFPPAVQRWVIGRCLCVPER [TAT-SP],activation of Akt pathway by ITGA2 (p-Akt T308),[6],inhibits the activation of Akt pathway
same,DOX-induced apoptosis,[7],leaves CSCs unprotected from DOX-induced apoptosis
same,competition with CRT for the KXGFFKR motif / inhibition of immunoprecipitation of ITGA2,[8],compete with CRT
same,DOX accumulation,[9],high level of DOX accumulation
same,"modulation of CSC chemoresistance with respect to DOX, PTX and VCR","[3]; CSCs, DOX, PTX and VCR IC50 (FIG. 5D)",able to modulate CSC chemoresistance
"SELGFPPAVQRWVIGRCLCVPER [SP, peptide derived from the UBL domain of SHARPIN (residues 259-281)]",competition with CRT for the KXGFFKR motif / inhibition of immunoprecipitation of ITGA2,[8],compete with CRT
